# Experimental data from patent US6875578B2, “System for cell-based screening” (priority 1997, dated 2005).
# Experiments:
# L929 cells = assay: Apoptosis actin reorganization (f-actin content), L929 cells; format: cell-based, mouse; settings: 30 hours
# Protocol: Cells were plated in 96-well plates at densities of 3×10^3 to 1×10^4 cells/well. The following day apoptotic inducers were added at indicated concentrations. Cells were incubated for the indicated time periods (usually 16-30 hours). The next day the medium was removed and cells were stained with 5 μg/ml Hoechst (Molecular Probes, Inc.) in fresh medium and incubated for 30 minutes at […]. Cells were washed in HBSS and fixed with 3.7% formaldehyde in HBSS at room temperature. Plates were washed with HBSS and permeabilized with 0.5% v/v Triton X-100 in HBSS at room temperature. Plates were washed in HBSS and stained with 100 μl of 1 U/ml of Alexa 488 Phalloidin stock (100 μl/well, Molecular Probes, Inc.). Cells were washed 2×with HBSS at RT and the plate was sealed.
# Quantitation of f-actin content was accomplished by measuring the intensity of phalloidin staining around the nucleus. This was determined to be a reasonable approximation of a full cytoplasmic average of the intensity. The mask used to approximate this cytoplasmic measure was derived from the nuclear mask defined by the Hoechst stain. Derivation was accomplished by combinations of erosions and dilations.
# caspase-3 [1] = assay: Caspase-3 biosensor apoptosis assay, BHK cells; format: cell-based; settings: BHK cells transfected with the caspase 3 biosensor
# Protocol: (§1) For DNA transfection, BHK cells and MCF-7 cells were cultured to 50-70% confluence in 6 well plates containing 3 ml of minimal Eagle's medium (MEM) with 10% fetal calf serum, 1 mM L-glutamine, 50 μg/ml streptomycin, 50 μg/ml penicillin, 0.1 mM non-essential amino acids, 1 mM sodium pyruvate and 10 μg/ml of bovine insulin (for MCF-7 cell only) at 37° C. in a 5% CO2 incubator for about 36 hours. The cells were washed with serum free MEM media and incubated for 5 hours with 1 ml of transfection mixture containing 1 μg of the appropriate plasmid and 4 μg of lipofectimine (BRL) in the serum free MEM media. Subsequently, the transfection medium was removed and replaced with 3 ml of normal culture media. The transfected cells were maintained in growth medium for at least 16 hours before performing selection of the stable cells based on standard molecular biology methods (Ausubel. et al 1995).
# For apoptosis assays, the cells (BHK, MCF-7) stably transfected with the appropriate protease biosensor expression vector were plated on tissue culture treated 96-well plates at 50-60% confluence and cultured overnight at 37° C., 5% CO2. […]
# (§2) The biosensor response is measured by quantitating the effective cytoplasm-to-nuclear translocation of the signal (see above). […]
# caspase-3 [2] = assay: Caspase-3 biosensor apoptosis assay, MCF-7 cells; format: cell-based; settings: MCF-7 cells transfected with the caspase 3 biosensor
# Protocol: as §1
# For apoptosis assays, the cells (BHK, MCF-7) stably transfected with the appropriate protease biosensor expression vector were plated on tissue culture treated 96-well plates at 50-60% confluence and cultured overnight at 37° C., 5% CO2. Varying concentrations of cis-platin, staurosporine, or paclitaxel in normal culture media were freshly prepared from stock and added to cell culture dishes to replace the old culture media. The cells were then observed with the cell screening system of the present invention at the indicated time points either as live cell experiments or as fixed end-point experiments.
# This biosensor is restricted to the cytoplasm by the reactant target sequence. The reactant target sequence is the annexin II cytoskeletal binding domain ([…]) (SEQ ID NO:124) (FIG. 29C) (Eberhard et al. 1997. Mol. Biol. Cell 8:293a). The enzyme recognition site corresponds to two copies of the amino acid sequence DEVD (SEQ ID NO:60) (FIG. 29B), which serves as the recognition site of caspase-3. […]
# as §2
# MCF-7 cells = assay: Apoptosis nuclear morphology, MCF-7 cells; format: cell-based; settings: 30 hours
# Protocol: Cells were plated into 96-well plates at densities of 3×10^3 to 1×10^4 cells/well. The following day apoptotic inducers were added at indicated concentrations and cells were incubated for indicated time periods (usually 16-30 hours). The next day medium was removed and cells were stained with 5 μg/ml Hoechst (Molecular Probes, Inc.) in fresh medium and incubated for 30 minutes at 37° C. Cells were washed in Hank's Balanced Salt Solution (HBSS) and fixed with 3.7% formaldehyde in HBSS at room temperature. Cells were washed 2×with HBSS at room temperature and the plate was sealed.
# Quantitation of changes in nuclear morphology upon induction of apoptosis was accomplished by (1) measuring the effective size of the nuclear region; and (2) measuring the degree of convolution of the perimeter.
# [3] = system: microtubule arrays (tubulin-GFP chimera); assay: Microtubule disruption assay, LLCPK cells with tubulin-GFP biosensor; format: cell-based, pig; settings: 10-500 nM, 12 hour time point
# Protocol: For microtubule disruption assays, LLCPK cells stably transfected with a tubulin-GFP biosensor plasmid were plated on 96 well cell culture dishes at 50-60% confluence and cultured overnight at 37° C., 5% CO2. […] The cells were then observed with the cell screening system described above, at a 12 hour time point.
compound,measurement,setting,value
CC(=O)O[C@H]1C(=O)[C@@]2(C)[C@H]([C@H](OC(=O)c3ccccc3)[C@]3(O)C[C@H](OC(=O)[C@H](O)[C@@H](NC(=O)c4ccccc4)c4ccccc4)C(C)=C1C3(C)C)[C@]1(OC(C)=O)CO[C@@H]1C[C@@H]2O [paclitaxel],change in peri-nuclear f-actin content,L929 cells,dose-dependent increases in f-actin content
same,change in peri-nuclear f-actin content,L929 cells; listed as Paclitaxel,graded increases in f-actin
same,caspase activation reported by the biosensor,caspase-3 [1],stimulated
same,caspase activation reported by the biosensor,caspase-3 [2],stimulated
same,change in nuclear morphology,MCF-7 cells,nuclear fragmentation
same,Response of microtubule arrays,[3],Stabilization
